Measured values as given in PMC5224920, “Assessing the mechanism and therapeutic potential of modulators of the human Mediator complex-associated protein kinases” (eLife, 2016).

System: 12 single or co-culture in vitro tissue models of primary cells
Assay: Culture/co-culture cell model panel, extracellular biomarkers (DiscoveRx); as to CCL2/MCP-1: reference of the scale not given here; as to CXCL8/IL-8: reference of the scale not given here; as to CXCL9/MIG: reference of the scale not given here; as to M-CSF: reference of the scale not given here; as to SRB: reference of the scale not given here
Format: cell-based, human
[1] = /HDFNo unstimulated fibroblasts, 1.00E4 nM
[2] = /HDFNo unstimulated fibroblasts, 1.11E3 nM
[3] = /HDFNo unstimulated fibroblasts, 1.23E2 nM
[4] = /HDFNo unstimulated fibroblasts, 1.37E1 nM
[5] = /HDFNo unstimulated fibroblasts, 3.33E3 nM
[6] = /HDFNo unstimulated fibroblasts, 3.70E2 nM
[7] = /HDFNo unstimulated fibroblasts, 4.12E1 nM
[8] = /HDFNo unstimulated fibroblasts, 4.57E0 nM

Cc1n[nH]c2ncc(C(=O)N3CCC[C@H]3c3ccc(Cl)cc3)cc12 [CMPD4]
M-CSF (/HDF3CT, 3.70E2 nM): -0.052
MMP-1 (/HDF3CT, 3.70E2 nM): -0.021
PAI-I (/HDF3CT, 3.70E2 nM): -0.054
SRB (/HDF3CT, 3.70E2 nM): 0.014
TIMP-2 (/HDF3CT, 3.70E2 nM): 0.055
CCL2/MCP-1 (/HDF3CT, 4.12E1 nM): -0.025
CD54/ICAM-1 (/HDF3CT, 4.12E1 nM): -0.054
CD106/VCAM-1 (/HDF3CT, 4.12E1 nM): 0.009
CXCL8/IL-8 (/HDF3CT, 4.12E1 nM): -0.089
CXCL9/MIG (/HDF3CT, 4.12E1 nM): -0.015
CXCL10/IP-10 (/HDF3CT, 4.12E1 nM): 0.023
Collagen I (/HDF3CT, 4.12E1 nM): -0.036
M-CSF (/HDF3CT, 4.12E1 nM): -0.072
MMP-1 (/HDF3CT, 4.12E1 nM): 0.049
PAI-I (/HDF3CT, 4.12E1 nM): -0.006
SRB (/HDF3CT, 4.12E1 nM): 0.013
TIMP-2 (/HDF3CT, 4.12E1 nM): 0.105
CCL2/MCP-1 (/HDF3CT, 4.57E0 nM): 0.071
CD54/ICAM-1 (/HDF3CT, 4.57E0 nM): -0.030
CD106/VCAM-1 (/HDF3CT, 4.57E0 nM): 0.022
CXCL8/IL-8 (/HDF3CT, 4.57E0 nM): -0.033
CXCL9/MIG (/HDF3CT, 4.57E0 nM): 0.019
CXCL10/IP-10 (/HDF3CT, 4.57E0 nM): 0.003
Collagen I (/HDF3CT, 4.57E0 nM): 0.009
M-CSF (/HDF3CT, 4.57E0 nM): -0.072
MMP-1 (/HDF3CT, 4.57E0 nM): 0.086
PAI-I (/HDF3CT, 4.57E0 nM): 0.017
SRB (/HDF3CT, 4.57E0 nM): 0.023
TIMP-2 (/HDF3CT, 4.57E0 nM): 0.088
CXCL8/IL-8 [1]: 0.032
CXCL9/MIG [1]: 0.127
CXCL10/IP-10 [1]: 0.013
CXCL11/I-TAC [1]: -0.046
EGFR [1]: 0.051
M-CSF [1]: 0.0038
MMP-1 [1]: -0.013
PAI-I [1]: -0.051
Proliferation_72hr [1]: 0.179
SRB [1]: 0.000631
TIMP-1 [1]: 0.019
TIMP-2 [1]: -0.228
CXCL8/IL-8 [2]: -0.076
CXCL9/MIG [2]: -0.081
CXCL10/IP-10 [2]: -0.021
CXCL11/I-TAC [2]: -0.035
EGFR [2]: -0.009
M-CSF [2]: -0.068
MMP-1 [2]: -0.043
PAI-I [2]: -0.052
Proliferation_72hr [2]: 0.134
SRB [2]: 0.024
TIMP-1 [2]: 0.00471
TIMP-2 [2]: -0.013
CXCL8/IL-8 [3]: -0.103
CXCL9/MIG [3]: -0.075
CXCL10/IP-10 [3]: -0.039
CXCL11/I-TAC [3]: -0.045
EGFR [3]: -0.011
M-CSF [3]: 0.013
MMP-1 [3]: -0.032
PAI-I [3]: 0.00163
Proliferation_72hr [3]: 0.087
SRB [3]: 0.010
TIMP-1 [3]: -0.034
TIMP-2 [3]: 0.076
CXCL8/IL-8 [4]: -0.022
CXCL9/MIG [4]: -0.044
CXCL10/IP-10 [4]: -0.0053
CXCL11/I-TAC [4]: -0.037
EGFR [4]: 0.035
M-CSF [4]: 0.000135
MMP-1 [4]: -0.004
PAI-I [4]: -0.012
Proliferation_72hr [4]: 0.060
SRB [4]: 0.007
TIMP-1 [4]: 0.000829
TIMP-2 [4]: 0.075
CXCL8/IL-8 [5]: -0.039
CXCL9/MIG [5]: -0.027
CXCL10/IP-10 [5]: -0.048
CXCL11/I-TAC [5]: -0.031
EGFR [5]: 0.046
M-CSF [5]: -0.016
MMP-1 [5]: -0.033
PAI-I [5]: -0.029
Proliferation_72hr [5]: 0.157
SRB [5]: 0.00444
TIMP-1 [5]: 0.014
TIMP-2 [5]: -0.121
CXCL8/IL-8 [6]: -0.076
CXCL9/MIG [6]: -0.059
CXCL10/IP-10 [6]: -0.040
CXCL11/I-TAC [6]: -0.00462
EGFR [6]: -0.018
M-CSF [6]: -0.00531
MMP-1 [6]: -0.010
PAI-I [6]: -0.018
Proliferation_72hr [6]: 0.139
SRB [6]: 0.020
TIMP-1 [6]: 0.003
TIMP-2 [6]: 0.082
CXCL8/IL-8 [7]: -0.024
CXCL9/MIG [7]: -0.065
CXCL10/IP-10 [7]: -0.026
CXCL11/I-TAC [7]: -0.032
EGFR [7]: 0.00663
M-CSF [7]: -0.024
MMP-1 [7]: -0.026
PAI-I [7]: -0.010
Proliferation_72hr [7]: 0.102
SRB [7]: 0.013
TIMP-1 [7]: -0.020
TIMP-2 [7]: 0.059
CXCL8/IL-8 [8]: 0.034
CXCL9/MIG [8]: 0.056
CXCL10/IP-10 [8]: 0.00467
CXCL11/I-TAC [8]: -0.00186
EGFR [8]: 0.019
M-CSF [8]: -0.012
MMP-1 [8]: 0.055
PAI-I [8]: 0.075
Proliferation_72hr [8]: 0.072
SRB [8]: 0.043
TIMP-1 [8]: 0.048
TIMP-2 [8]: -0.057
CCL2/MCP-1 (/HDFNo, 1.00E4 nM): 0.040
CD54/ICAM-1 (/HDFNo, 1.00E4 nM): 0.094
CD106/VCAM-1 (/HDFNo, 1.00E4 nM): 0.027
Collagen I (/HDFNo, 1.00E4 nM): 0.067
Collagen III (/HDFNo, 1.00E4 nM): -0.015
CCL2/MCP-1 (/HDFNo, 1.11E3 nM): 0.00326
CD54/ICAM-1 (/HDFNo, 1.11E3 nM): -0.048
CD106/VCAM-1 (/HDFNo, 1.11E3 nM): -0.067
Collagen I (/HDFNo, 1.11E3 nM): -0.022
Collagen III (/HDFNo, 1.11E3 nM): 0.013
CCL2/MCP-1 (/HDFNo, 1.23E2 nM): -0.009
CD54/ICAM-1 (/HDFNo, 1.23E2 nM): -0.013
CD106/VCAM-1 (/HDFNo, 1.23E2 nM): -0.096
Collagen I (/HDFNo, 1.23E2 nM): -0.065
Collagen III (/HDFNo, 1.23E2 nM): 0.012
CCL2/MCP-1 (/HDFNo, 1.37E1 nM): -0.022
CD54/ICAM-1 (/HDFNo, 1.37E1 nM): -0.024
CD106/VCAM-1 (/HDFNo, 1.37E1 nM): 0.020
Collagen I (/HDFNo, 1.37E1 nM): -0.080
Collagen III (/HDFNo, 1.37E1 nM): 0.026
CCL2/MCP-1 (/HDFNo, 3.33E3 nM): -0.021
CD54/ICAM-1 (/HDFNo, 3.33E3 nM): -0.005
CD106/VCAM-1 (/HDFNo, 3.33E3 nM): -0.034
Collagen I (/HDFNo, 3.33E3 nM): -0.014
Collagen III (/HDFNo, 3.33E3 nM): 0.025
CCL2/MCP-1 (/HDFNo, 3.70E2 nM): -0.005
CD54/ICAM-1 (/HDFNo, 3.70E2 nM): -0.029
CD106/VCAM-1 (/HDFNo, 3.70E2 nM): -0.058
Collagen I (/HDFNo, 3.70E2 nM): -0.055
Collagen III (/HDFNo, 3.70E2 nM): 0.000891
CCL2/MCP-1 (/HDFNo, 4.12E1 nM): 0.007
CD54/ICAM-1 (/HDFNo, 4.12E1 nM): -0.036
CD106/VCAM-1 (/HDFNo, 4.12E1 nM): -0.047
Collagen I (/HDFNo, 4.12E1 nM): -0.086
Collagen III (/HDFNo, 4.12E1 nM): 0.030
CCL2/MCP-1 (/HDFNo, 4.57E0 nM): 0.025
CD54/ICAM-1 (/HDFNo, 4.57E0 nM): 0.028
CD106/VCAM-1 (/HDFNo, 4.57E0 nM): 0.010
